How the values were obtained:
[1] = in vivo
Text: • 1. acute toxicity test: including tests of administrating medicine by oral, Intravenous injection and maximum limit amount for administration; • 2. Ames test; • 3. micronucleus test of bone marrow cell of mouse; • 4. abnormal sexual test for the sperm of mouse; • 5. abnormal aberrance test for the chromosin of mouse's testis; • 6. chronic lethal test; • 7. subchronic toxicity (feed for 90 days) test; • 8. traditional aberrance-inducing test;

Proteus Mirabilis = test: Promoting wave test (bio-wave model); type: cell-based; details: final concentration of 0.5% on LB plate, 37° C.
Text: I. Promoting Wave Test of the Compound of Formula (I) 1.

In the case of `CC(=O)N[C@@H]1[C@@H](O)[C@H](O)[C@@H](CO)O[C@H]1O` [compound of formula (I), N-acetyl-D-glucosamine], the “acute test dosage relative to the injection dosage for human being” value [1] is reported as 300 times, the “dosage at which acute toxicosis reaction had not appeared” value [1] is reported as “more than 2 g/kg” and the “promoting wave function (concentric ring pattern compared with control)” value (Proteus Mirabilis) is reported as “there were also many fine waves on each ring emerged”.

Source: patent US7037904B2, “Use of N-acetyl-D-glucosamine in the manufacture of pharmaceutical useful for suppressing side-effect of radiotherapy and chemotherapy” (Third Military Medical University, Chinese People's …, priority 2001, dated 2006)
